# Measured values published in ChEMBL document CHEMBL1123821, “Synthesis of 5-chloro-5,8-dideaza analogues of folic acid and aminopterin targeted for colon adenocarcinoma” (J Med Chem, 1987).
# What was measured:
# Format in all cases: functional, cell-based
# HuTu80 = test: Inhibition of cell growth against HuTu 80 human gastrointestinal adenocarcinoma cell lines in vitro
# WiDr = test: Inhibition of cell growth against WIDR human gastrointestinal adenocarcinoma cell lines in vitro
# HT-29 = test: Inhibition of cell growth against HT-29 human gastrointestinal adenocarcinoma cell lines in vitro
# SW480 = test: Inhibition of cell growth against SW480 human gastrointestinal adenocarcinoma cell lines in vitro
compound,measurement,setting,value
Cc1c(NCc2ccc(C(=O)NC(CCC(=O)O)C(=O)O)cc2)ccc2nc(N)nc(O)c12 (stereo unspecified),IC50,HuTu80,4000 nM
Cc1c(CNc2ccc(C(=O)NC(CCC(=O)O)C(=O)O)cc2)ccc2nc(N)nc(N)c12 (stereo unspecified),IC50,WiDr,5 nM
same,IC50,HT-29,3 nM
same,IC50,HuTu80,3.4 nM
same,IC50,SW480,5 nM
Nc1nc(O)c2c(Cl)c(NCc3ccc(C(=O)NC(CCC(=O)O)C(=O)O)cc3)ccc2n1 (stereo unspecified),IC50,WiDr,11000 nM
same,IC50,HT-29,6700 nM
same,IC50,HuTu80,8500 nM
same,IC50,SW480,38000 nM
Cc1c(NCc2ccc(C(=O)NC(CCC(=O)O)C(=O)O)cc2)ccc2nc(N)nc(N)c12 (stereo unspecified),IC50,WiDr,71 nM
same,IC50,HT-29,60 nM
same,IC50,HuTu80,47 nM
same,IC50,SW480,56 nM
Nc1nc(N)c2c(Cl)c(CNc3ccc(C(=O)NC(CCC(=O)O)C(=O)O)cc3)ccc2n1 (stereo unspecified),IC50,WiDr,2.1 nM
same,IC50,HT-29,2.3 nM
same,IC50,HuTu80,1.9 nM
same,IC50,SW480,2 nM
CN(Cc1cnc2nc(N)nc(N)c2n1)c1ccc(C(=O)N[C@@H](CCC(=O)O)C(=O)O)cc1 [METHOTREXATE],IC50,HuTu80,9 nM
Nc1nc(N)c2c(Cl)c(NCc3ccc(C(=O)NC(CCC(=O)O)C(=O)O)cc3)ccc2n1 (stereo unspecified),IC50,WiDr,24 nM
same,IC50,HT-29,25 nM
same,IC50,HuTu80,22 nM
same,IC50,SW480,20 nM
Nc1nc(=O)c2cc(NCc3ccc(C(=O)NC(CCC(=O)O)C(=O)O)cc3)ccc2[nH]1 (stereo unspecified),IC50,WiDr,4200 nM
same,IC50,HT-29,1700 nM
same,IC50,HuTu80,4500 nM
same,IC50,SW480,4500 nM
